{
  "source": "patent US9533995B2",
  "about": "“Substituted N-heteroaryl spirolactam bipyrrolidines, preparation and therapeutic use thereof” (SANOFI, priority 2010, dated 2017)",
  "note": "Structures can show the parent of a compound that is named as a salt.",
  "data": [
    {"target": "rhesus (Macacca Mulatta) H3 receptor (Macaca mulatta, UniProt Q865E1)", "sequence (Q865E1 1-445)": "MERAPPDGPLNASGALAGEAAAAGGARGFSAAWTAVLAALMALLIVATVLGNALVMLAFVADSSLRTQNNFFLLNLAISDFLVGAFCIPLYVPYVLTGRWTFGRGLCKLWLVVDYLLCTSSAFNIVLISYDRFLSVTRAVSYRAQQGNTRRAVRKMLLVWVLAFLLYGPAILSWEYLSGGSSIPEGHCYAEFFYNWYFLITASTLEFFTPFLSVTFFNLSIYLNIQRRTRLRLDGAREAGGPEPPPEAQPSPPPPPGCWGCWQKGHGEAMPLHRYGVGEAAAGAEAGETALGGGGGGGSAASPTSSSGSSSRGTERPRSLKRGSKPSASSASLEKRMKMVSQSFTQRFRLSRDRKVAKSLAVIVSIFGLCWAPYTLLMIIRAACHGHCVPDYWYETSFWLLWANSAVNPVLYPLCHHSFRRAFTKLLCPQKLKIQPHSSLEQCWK", "assay": "Rhesus H3 radioligand binding assay ([3H]-Methylhistamine displacement, WGA SPA beads)", "parameters": "species or system rhesus monkey (Macacca Mulatta)", "settings": "[3H]-Methylhistamine 2 nM, rhesus H3 membranes, 25° C., 1 hour; Cheng-Prusoff", "description": "Rhesus H3 membranes were prepared from the Flp-In T-REx 293 Cell Line (Invitrogen) stably transfected with pcDNA5/FRT/TO (Invitrogen) containing the rhesus monkey (Macacca Mulatta) 445 amino acid H3 receptor. (Genbank #AY231164). Stably transfected cultures were amplified in tissue culture flasks by standard tissue culture methods and induced to express rhesus H3 by exposure to 500 ng/ml tetracycline (Cellgro) for 24 hours. After induction, cells were dissociated from flasks utilizing Cell Stripper (Cellgro). Cells were centrifuged (1K×g, 5 min) and pellet frozen in an ethanol-dry ice bath to disrupt cell membranes. Frozen cell pellet was re-suspended in 5 mM HEPES (pH 7.4, Invitrogen) at 10 ml/1000 cm2 of harvested cells. The cell suspension was drawn through an 18 gauge needle (2-3×) followed by a 23 gauge needle (2-3×) to further disrupt cell membranes. The cell suspension was centrifuged (40K×g, 30 min). Cell membrane pellet was re-suspended in 5 mM HEPES (pH 7.4, Invitrogen) at a final protein concentration of 10 mg/ml. Rhesus H3 membranes were stored under liquid nitrogen prior to use in [3H]-Methylhistamine and GTPγS radioligand binding assays.\nRhesus H3 radioligand binding assay was performed using rhesus H3 receptor membranes (prepared as described above), [3H]-Methylhistamine (Perkin Elmer) and WGA SPA beads (wheat germ agglutinin scintillation proximity assay) beads (Amersham). The assay was performed in 96-well Opti-Plates (Packard). Each reaction contained 50 μl rhesus H3 membranes (20-30 μg total protein), 50 μl WGA SPA beads (0.1 μg) and 50 μl of 83 Ci/mmol [^3H]-Methylhistamine (final concentration 2 nM) and 50 μl of tested compound. The compounds of this invention and/or vehicle were diluted with binding buffer from 10 mM DMSO stocks. Assay plates were sealed with TopSeal (Perkin Elmer) and mixed on shaker (25° C., 1 hour). Assay plates were read on TopCount scintillation counter (Packard). Results were analyzed by Hill transformation and Ki values were determined by Cheng-Prusoff equation.", "units": {"Ki": "nM"}, "values": [
      {"smiles": "Cc1nc(N2CC[C@@H](N3CCC[C@@H]3C)C2)ccc1N1CCC2(CCOCC2)C1=O", "note": "[Example 1, 2-[2-Methyl-6-((2S,3′R)-2-methyl-[1,3′]bipyrrolidinyl-1′-yl)-pyridin-3-yl]-8-oxa-2-aza-spiro[4.5]decan-1-one]", "Ki": 37.6},
      {"smiles": "Cc1nc(N2CC[C@@H](N3CCC[C@@H]3C)C2)ccc1N1CCCC2(CCOCC2)C1=O", "note": "[Example 2, 2-[2-Methyl-6-((2S,3′R)-2-methyl-[1,3′]bipyrrolidinyl-1′-yl)-pyridin-3-yl]-9-oxa-2-aza-spiro[5.5]undecan-1-one]", "Ki": 95.1},
      {"smiles": "Cc1nc(N2CC[C@@H](N3CCC[C@@H]3C)C2)ccc1N1CCC2(CCC(O)CC2)C1=O", "note": "(stereo partly drawn) [Example 5, 8-Hydroxy-2-[2-methyl-6-((2S,3′R)-2-methyl-[1,3′]bipyrrolidinyl-1′-yl)-pyridin-3-yl]-2-aza-spiro[4.5]decan-1-one]", "Ki": 267},
      {"smiles": "Cc1nc(N2CC[C@@H](N3CCC[C@@H]3C)C2)ccc1N1CCC2(CCCCC2)C1=O", "note": "[Example 6, 2-[2-Methyl-6-((2S,3′R)-2-methyl-[1,3′]bipyrrolidinyl-1′-yl)-pyridin-3-yl]-2-aza-spiro[4.5]decan-1-one]", "Ki": 56.5},
      {"smiles": "Cc1nc(N2CC[C@H](N3CCC[C@@H]3C)C2)ccc1N1CCC2(CCOCC2)C1=O", "note": "[Example 7, 2-[2-Methyl-6-((2S,3′S)-2-methyl-[1,3′]bipyrrolidinyl-1′-yl)-pyridin-3-yl]-8-oxa-2-aza-spiro[4.5]decan-1-one]", "Ki": 7.1},
      {"smiles": "Cc1nc(N2CC[C@@H](N3CCC[C@@H]3C)C2)ccc1N1CCC2(CCNCC2)C1=O", "note": "[Example 8, 2-[2-Methyl-6-((2S,3′R)-2-methyl-[1,3′]bipyrrolidinyl-1′-yl)-pyridin-3-yl]-2,8-diaza-spiro[4.5]decan-1-one hydrochloride]", "Ki": 17.5},
      {"smiles": "Cc1nc(N2CC[C@@H](N3CCC[C@@H]3C)C2)ccc1N1CCCC2(CCNCC2)C1=O", "note": "[Example 9, 2-[2-Methyl-6-((2S,3′R)-2-methyl-[1,3′]bipyrrolidinyl-1′-yl)-pyridin-3-yl]-2,9-diaza-spiro[5.5]undecan-1-one hydrochloride]", "Ki": 38.9},
      {"smiles": "C[C@H]1CCCN1[C@H]1CCN(c2cnc(N3CCC4(CCNCC4)C3=O)cn2)C1", "note": "[Example 10, 2-[5-((2S,3′S)-2-Methyl-[1,3′]bipyrrolidinyl-1′-yl)-pyrazin-2-yl]-2,8-diaza-spiro[4.5]decan-1-one]", "Ki": 26.3},
      {"smiles": "Cc1nc(N2CC[C@H](N3CCC[C@@H]3C)C2)ccc1N1CCC2(CCNCC2)C1=O", "note": "[Example 11, 2-[2-Methyl-6-((2S,3′S)-2-methyl-[1,3′]bipyrrolidinyl-1′-yl)-pyridin-3-yl]-2,8-diaza-spiro[4.5]decan-1-one]", "Ki": 7.57},
      {"smiles": "C[C@H]1CCCN1[C@H]1CCN(c2ncc(N3CCC4(CCN(C(=O)OC(C)(C)C)CC4)C3=O)cn2)C1", "note": "[Example 12, 2-[2-((2S,3′S)-2-Methyl-[1,3′]bipyrrolidinyl-1′-yl)-pyrimidin-5-yl]-1-oxo-2,8-diaza-spiro[4.5]decane-8-carboxylic acid tert-butyl ester]", "Ki": 48.5},
      {"smiles": "C[C@H]1CCCN1[C@H]1CCN(c2ccc(N3CCC4(CCOCC4)C3=O)nc2)C1", "note": "[Example 13, 2-[5-((2S,3′S)-2-Methyl-[1,3′]bipyrrolidinyl-1′-yl)-pyridin-2-yl]-8-oxa-2-aza-spiro[4.5]decan-1-one]", "Ki": 22.3},
      {"smiles": "C[C@H]1CCCN1[C@H]1CCN(c2cnc(N3CCC4(CCN(C(=O)OC(C)(C)C)CC4)C3=O)cn2)C1", "note": "[Example 14, 2-[5-((2S,3′S)-2-Methyl-[1,3′]bipyrrolidinyl-1′-yl)-pyrazin-2-yl]-1-oxo-2,8-diaza-spiro[4.5]decane-8-carboxylic acid tert-butyl ester]", "Ki": 105},
      {"smiles": "Cc1nc(N2CC[C@H](N3CCC[C@@H]3C)C2)ccc1N1CCC2(CCN(C(=O)OC(C)(C)C)CC2)C1=O", "note": "[Example 15, 2-[2-Methyl-6-((2S,3′S)-2-methyl-[1,3′]bipyrrolidinyl-1′-yl)-pyridin-3-yl]-1-oxo-2,8-diaza-spiro[4.5]decane-8-carboxylic acid tert-butyl ester]", "Ki": 95.5},
      {"smiles": "C[C@H]1CCCN1[C@H]1CCN(c2ncc(N3CCC4(CCOCC4)C3=O)cn2)C1", "note": "[Example 16, 2-[2-((2S,3′S)-2-Methyl-[1,3′]bipyrrolidinyl-1′-yl)-pyrimidin-5-yl]-8-oxa-2-aza-spiro[4.5]decan-1-one]", "Ki": 4.21}
    ]}
  ]
}
